Measurements as given in ChEMBL document CHEMBL1201862, “PubChem BioAssay data set” (2004).
One block for each compound: values may come before it. Calls of active or inactive are those of the source.

Assays:
[1] = target: T1, Mitochondrial peptide methionine sulfoxide reductase (Bos taurus, UniProt P54149); experiment: Absorbance-based biochemical high throughput dose response assay for activators of Methionine sulfoxide reductase A (MsrA).; format: functional
T1 sequence (P54149 whole entry): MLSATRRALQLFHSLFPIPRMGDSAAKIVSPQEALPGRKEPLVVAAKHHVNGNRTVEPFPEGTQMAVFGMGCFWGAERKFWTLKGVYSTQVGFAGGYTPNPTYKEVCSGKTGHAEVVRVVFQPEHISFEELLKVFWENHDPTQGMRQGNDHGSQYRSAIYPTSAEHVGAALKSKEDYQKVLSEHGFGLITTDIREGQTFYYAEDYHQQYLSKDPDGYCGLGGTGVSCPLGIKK

[2] = target: T2, Rac GTPase-activating protein 1 (Homo sapiens, UniProt Q9H0H5); experiment: blockers of MgcRacGAP-driven Rac1 GTP hydrolysis – biochemical, ADP Hunter fluorescence, primary and confirmatory, confirmation (AID 624330); format: functional
T2 sequence (Q9H0H5 whole entry): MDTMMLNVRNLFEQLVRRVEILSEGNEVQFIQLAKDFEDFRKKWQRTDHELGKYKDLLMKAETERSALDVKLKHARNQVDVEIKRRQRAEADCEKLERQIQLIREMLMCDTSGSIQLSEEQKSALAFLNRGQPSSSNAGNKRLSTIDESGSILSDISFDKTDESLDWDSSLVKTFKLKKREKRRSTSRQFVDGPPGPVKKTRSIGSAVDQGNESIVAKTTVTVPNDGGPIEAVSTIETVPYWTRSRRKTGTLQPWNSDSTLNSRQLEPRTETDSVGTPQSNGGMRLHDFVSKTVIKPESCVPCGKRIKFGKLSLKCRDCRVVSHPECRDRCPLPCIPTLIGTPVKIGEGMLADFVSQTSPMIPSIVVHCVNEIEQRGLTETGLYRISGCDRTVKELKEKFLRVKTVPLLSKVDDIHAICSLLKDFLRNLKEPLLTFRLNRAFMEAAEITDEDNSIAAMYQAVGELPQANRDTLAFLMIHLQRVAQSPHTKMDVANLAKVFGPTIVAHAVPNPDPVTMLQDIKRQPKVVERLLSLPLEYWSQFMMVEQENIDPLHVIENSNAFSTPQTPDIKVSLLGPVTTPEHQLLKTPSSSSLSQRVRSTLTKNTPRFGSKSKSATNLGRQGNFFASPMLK

[3] = inhibition of ARNT PAS-B/TACC3 complex formation – biochemical, AlphaScreen, cherry-picked samples, confirmation (AID 651703); format: functional, Homo sapiens;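 further: His-tagged ARNT PAS-B domain paired with GST-TACC3 E629A dimer coactivator fragment; potency of inhibitors that break up the complex and lower AlphaScreen signal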
[4] = target: ALK tyrosine kinase receptor (Homo sapiens, UniProt Q9UM73); format: functional;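 further: ALK tested as one member of a kinase panel screen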
[5] = target: Tyrosine-protein kinase Lck (Homo sapiens, UniProt P06239); format: functional;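 further: lck was assayed as one member of a kinase panel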
[6] = target: Serine/threonine-protein kinase pim-1 (Homo sapiens, UniProt P11309); format: functional
[7] = target: Tyrosine-protein kinase BTK (Homo sapiens, UniProt Q06187); format: functional
[8] = target: T3, Serine/threonine-protein kinase TAO1 (Homo sapiens, UniProt Q7L7X3); format: functional
T3 sequence (Q7L7X3 whole entry): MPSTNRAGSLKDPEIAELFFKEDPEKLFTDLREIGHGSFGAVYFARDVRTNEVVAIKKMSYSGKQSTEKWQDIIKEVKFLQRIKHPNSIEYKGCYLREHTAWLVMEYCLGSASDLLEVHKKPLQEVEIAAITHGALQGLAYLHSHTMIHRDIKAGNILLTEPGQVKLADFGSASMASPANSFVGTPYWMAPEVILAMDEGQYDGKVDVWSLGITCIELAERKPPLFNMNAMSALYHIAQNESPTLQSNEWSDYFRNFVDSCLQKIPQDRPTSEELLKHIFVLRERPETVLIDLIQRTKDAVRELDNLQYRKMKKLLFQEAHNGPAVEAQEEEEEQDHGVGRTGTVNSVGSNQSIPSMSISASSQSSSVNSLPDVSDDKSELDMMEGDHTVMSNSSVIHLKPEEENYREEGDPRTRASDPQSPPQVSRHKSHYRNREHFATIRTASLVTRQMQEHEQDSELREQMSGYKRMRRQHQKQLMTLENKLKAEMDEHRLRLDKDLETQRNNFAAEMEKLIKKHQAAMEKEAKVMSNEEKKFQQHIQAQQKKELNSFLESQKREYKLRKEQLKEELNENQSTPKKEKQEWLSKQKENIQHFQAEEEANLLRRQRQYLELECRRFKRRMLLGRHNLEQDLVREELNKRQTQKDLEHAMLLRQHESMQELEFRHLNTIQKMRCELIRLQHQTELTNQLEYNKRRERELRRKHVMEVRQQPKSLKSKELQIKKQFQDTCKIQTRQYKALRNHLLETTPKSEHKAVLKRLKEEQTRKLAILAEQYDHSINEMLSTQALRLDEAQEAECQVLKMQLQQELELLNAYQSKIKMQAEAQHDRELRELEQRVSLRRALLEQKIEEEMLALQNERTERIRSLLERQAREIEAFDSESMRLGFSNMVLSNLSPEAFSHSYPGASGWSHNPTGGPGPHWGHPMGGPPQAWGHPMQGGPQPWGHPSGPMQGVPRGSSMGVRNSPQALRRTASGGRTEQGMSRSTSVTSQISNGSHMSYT

[9] = target: Tyrosine-protein kinase Fyn (Homo sapiens, UniProt P06241); format: functional
[10] = target: BDNF/NT-3 growth factors receptor (Homo sapiens, UniProt Q16620); format: functional;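 further: NTRK2 measured as one member of a broad kinome-wide kinase profiling panel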
[11] = target: Dual specificity protein kinase CLK4 (Homo sapiens, UniProt Q9HAZ1); format: functional
[12] = target: T4, RNA-binding protein pos-1 (Caenorhabditis elegans, UniProt G5EF15); experiment: disruptors of C. elegans POS-1 RNA interaction – biochemical, fluorescence polarization, dose response (AID 1964);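 further: purified POS-1 fused to maltose binding protein made in E. coli; potency of compounds blocking POS-1 binding to fluorescent RNA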
T4 sequence (G5EF15 whole entry): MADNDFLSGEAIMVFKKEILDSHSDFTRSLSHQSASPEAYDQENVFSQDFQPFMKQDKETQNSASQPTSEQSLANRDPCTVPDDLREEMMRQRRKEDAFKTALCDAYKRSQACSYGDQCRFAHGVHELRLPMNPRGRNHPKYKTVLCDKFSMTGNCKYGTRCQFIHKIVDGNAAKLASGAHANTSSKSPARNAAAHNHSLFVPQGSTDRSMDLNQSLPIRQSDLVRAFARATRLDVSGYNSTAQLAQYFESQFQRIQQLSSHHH

[13] = target: T5, Zinc finger protein mex-5 (Caenorhabditis elegans, UniProt Q9XUB2); experiment: potency of MEX-5 RNA-binding blockers – biochemical, C. elegans, fluorescence polarization, dose response (AID 1960)
T5 sequence (Q9XUB2 whole entry): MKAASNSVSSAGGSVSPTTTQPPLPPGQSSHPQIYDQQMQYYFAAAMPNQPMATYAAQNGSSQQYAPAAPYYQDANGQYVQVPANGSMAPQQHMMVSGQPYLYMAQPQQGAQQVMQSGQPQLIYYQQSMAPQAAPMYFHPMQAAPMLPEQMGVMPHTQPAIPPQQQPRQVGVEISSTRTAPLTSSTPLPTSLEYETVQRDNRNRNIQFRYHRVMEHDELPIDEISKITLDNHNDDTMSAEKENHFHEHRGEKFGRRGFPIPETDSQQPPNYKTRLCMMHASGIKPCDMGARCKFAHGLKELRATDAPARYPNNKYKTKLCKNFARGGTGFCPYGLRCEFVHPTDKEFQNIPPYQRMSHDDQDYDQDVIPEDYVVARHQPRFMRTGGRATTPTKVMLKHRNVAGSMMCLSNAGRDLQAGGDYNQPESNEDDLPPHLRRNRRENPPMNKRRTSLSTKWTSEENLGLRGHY

[14] = target: Dual specificity tyrosine-phosphorylation-regulated kinase 1A (Rattus norvegicus, UniProt Q63470); format: biochemical, Homo sapiens
[15] = target: Tyrosine-protein phosphatase non-receptor type 11 (Homo sapiens, UniProt Q06124); experiment: PTPN11 enzyme inhibitors – biochemical, selectivity assay for STEP inhibitor project, dose response (AID 602367); format: functional; details: read-out: IC50_Mean
[16] = target: Tyrosine-protein phosphatase non-receptor type 5 (Homo sapiens, UniProt P54829); experiment: PTPN5 enzyme inhibition – biochemical, fluorescence intensity, uHTS hits, confirmation (AID 602372); format: functional; details: read-out: IC50_Mean
[17] = target: Dual specificity protein phosphatase 3 (Homo sapiens, UniProt P51452); experiment: VHR phosphatase inhibition, dose response, selectivity assay for STEP inhibitor project, biochemical (AID 602374); format: functional; details: read-out: IC50_Mean
[18] = target: Potassium voltage-gated channel subfamily KQT member 2 (Rattus norvegicus, UniProt O88943); experiment: blockers of KCNQ2 channel current – cell-based, automated electrophysiology, set II, rat KCNQ2, dose response (AID 588637); format: functional
Sequence of Potassium voltage-gated channel subfamily KQT member 2 (O88943 whole entry): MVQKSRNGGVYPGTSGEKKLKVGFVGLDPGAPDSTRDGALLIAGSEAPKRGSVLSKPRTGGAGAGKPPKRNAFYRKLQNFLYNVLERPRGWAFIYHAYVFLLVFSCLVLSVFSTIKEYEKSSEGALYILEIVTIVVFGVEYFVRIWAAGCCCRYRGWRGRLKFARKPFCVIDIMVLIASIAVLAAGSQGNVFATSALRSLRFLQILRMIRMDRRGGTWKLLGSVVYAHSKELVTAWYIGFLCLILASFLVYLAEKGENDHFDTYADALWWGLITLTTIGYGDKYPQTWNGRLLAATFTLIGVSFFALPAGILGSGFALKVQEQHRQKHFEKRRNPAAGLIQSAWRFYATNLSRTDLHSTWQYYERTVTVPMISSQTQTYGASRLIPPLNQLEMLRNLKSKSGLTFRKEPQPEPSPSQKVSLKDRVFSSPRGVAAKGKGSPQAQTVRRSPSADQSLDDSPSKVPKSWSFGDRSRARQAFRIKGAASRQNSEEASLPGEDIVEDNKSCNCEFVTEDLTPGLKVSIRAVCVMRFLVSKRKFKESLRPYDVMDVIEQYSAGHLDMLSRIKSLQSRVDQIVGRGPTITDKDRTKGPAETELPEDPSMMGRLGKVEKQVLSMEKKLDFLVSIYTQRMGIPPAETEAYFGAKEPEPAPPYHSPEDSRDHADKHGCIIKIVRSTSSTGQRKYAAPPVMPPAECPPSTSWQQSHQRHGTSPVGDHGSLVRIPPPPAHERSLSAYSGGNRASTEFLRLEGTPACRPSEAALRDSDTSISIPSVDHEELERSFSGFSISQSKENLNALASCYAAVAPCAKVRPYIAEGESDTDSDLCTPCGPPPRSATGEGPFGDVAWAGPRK

Sequence of ALK tyrosine kinase receptor (Q9UM73 whole entry): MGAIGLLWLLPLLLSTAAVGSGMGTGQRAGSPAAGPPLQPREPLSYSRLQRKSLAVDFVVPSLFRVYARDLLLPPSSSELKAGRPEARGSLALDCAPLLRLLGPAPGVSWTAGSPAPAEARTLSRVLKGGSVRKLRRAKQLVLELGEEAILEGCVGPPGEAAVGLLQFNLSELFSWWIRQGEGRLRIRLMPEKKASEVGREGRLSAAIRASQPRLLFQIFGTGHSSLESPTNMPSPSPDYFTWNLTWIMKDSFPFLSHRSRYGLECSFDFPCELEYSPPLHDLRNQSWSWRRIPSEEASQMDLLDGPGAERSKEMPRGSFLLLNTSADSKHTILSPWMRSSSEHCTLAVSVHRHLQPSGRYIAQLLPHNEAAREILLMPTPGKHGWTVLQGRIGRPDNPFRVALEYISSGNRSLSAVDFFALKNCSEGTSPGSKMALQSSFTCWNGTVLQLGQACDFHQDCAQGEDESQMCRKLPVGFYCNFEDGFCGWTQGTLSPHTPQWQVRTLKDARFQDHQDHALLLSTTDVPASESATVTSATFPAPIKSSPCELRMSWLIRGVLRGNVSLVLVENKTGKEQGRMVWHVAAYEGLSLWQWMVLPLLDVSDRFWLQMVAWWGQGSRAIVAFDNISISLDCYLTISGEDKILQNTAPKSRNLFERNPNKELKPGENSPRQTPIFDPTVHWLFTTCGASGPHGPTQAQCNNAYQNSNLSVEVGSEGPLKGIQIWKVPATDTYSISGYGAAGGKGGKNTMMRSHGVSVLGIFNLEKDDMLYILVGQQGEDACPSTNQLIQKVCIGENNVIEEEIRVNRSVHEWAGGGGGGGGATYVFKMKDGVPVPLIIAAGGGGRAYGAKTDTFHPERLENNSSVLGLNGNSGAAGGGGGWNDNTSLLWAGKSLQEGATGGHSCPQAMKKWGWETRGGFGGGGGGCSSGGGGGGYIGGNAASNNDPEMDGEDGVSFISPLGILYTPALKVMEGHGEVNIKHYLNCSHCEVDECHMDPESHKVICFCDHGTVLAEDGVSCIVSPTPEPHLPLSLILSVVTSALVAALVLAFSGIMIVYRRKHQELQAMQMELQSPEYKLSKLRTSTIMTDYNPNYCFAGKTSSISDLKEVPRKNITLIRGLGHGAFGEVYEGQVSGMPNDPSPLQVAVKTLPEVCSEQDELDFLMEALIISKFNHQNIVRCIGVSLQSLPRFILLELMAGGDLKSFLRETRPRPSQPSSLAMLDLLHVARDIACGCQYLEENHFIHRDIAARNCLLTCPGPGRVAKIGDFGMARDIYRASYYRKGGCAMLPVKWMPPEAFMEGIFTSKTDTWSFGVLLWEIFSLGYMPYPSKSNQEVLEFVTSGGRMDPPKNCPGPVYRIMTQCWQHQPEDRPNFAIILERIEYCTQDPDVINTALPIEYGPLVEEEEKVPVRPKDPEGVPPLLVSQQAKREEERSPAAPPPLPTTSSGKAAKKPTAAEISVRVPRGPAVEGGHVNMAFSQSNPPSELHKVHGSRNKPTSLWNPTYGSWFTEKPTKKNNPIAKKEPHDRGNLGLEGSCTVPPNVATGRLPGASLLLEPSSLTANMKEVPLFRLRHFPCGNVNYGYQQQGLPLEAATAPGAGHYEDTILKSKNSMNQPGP
Sequence of Tyrosine-protein kinase Lck (P06239 whole entry): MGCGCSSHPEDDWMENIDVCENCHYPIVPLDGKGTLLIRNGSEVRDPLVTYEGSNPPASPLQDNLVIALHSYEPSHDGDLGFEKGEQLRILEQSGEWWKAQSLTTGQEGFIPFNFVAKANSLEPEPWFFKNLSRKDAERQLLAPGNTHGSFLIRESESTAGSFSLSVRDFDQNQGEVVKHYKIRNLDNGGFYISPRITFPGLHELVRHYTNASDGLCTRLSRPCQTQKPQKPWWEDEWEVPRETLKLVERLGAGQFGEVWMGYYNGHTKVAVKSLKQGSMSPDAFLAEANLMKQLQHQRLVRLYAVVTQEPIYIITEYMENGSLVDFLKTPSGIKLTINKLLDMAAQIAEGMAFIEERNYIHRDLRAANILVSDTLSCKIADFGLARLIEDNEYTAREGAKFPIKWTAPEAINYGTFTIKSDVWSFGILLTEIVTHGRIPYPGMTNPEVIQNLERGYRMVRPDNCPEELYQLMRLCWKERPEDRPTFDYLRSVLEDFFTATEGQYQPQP
Sequence of Tyrosine-protein phosphatase non-receptor type 5 (P54829 whole entry): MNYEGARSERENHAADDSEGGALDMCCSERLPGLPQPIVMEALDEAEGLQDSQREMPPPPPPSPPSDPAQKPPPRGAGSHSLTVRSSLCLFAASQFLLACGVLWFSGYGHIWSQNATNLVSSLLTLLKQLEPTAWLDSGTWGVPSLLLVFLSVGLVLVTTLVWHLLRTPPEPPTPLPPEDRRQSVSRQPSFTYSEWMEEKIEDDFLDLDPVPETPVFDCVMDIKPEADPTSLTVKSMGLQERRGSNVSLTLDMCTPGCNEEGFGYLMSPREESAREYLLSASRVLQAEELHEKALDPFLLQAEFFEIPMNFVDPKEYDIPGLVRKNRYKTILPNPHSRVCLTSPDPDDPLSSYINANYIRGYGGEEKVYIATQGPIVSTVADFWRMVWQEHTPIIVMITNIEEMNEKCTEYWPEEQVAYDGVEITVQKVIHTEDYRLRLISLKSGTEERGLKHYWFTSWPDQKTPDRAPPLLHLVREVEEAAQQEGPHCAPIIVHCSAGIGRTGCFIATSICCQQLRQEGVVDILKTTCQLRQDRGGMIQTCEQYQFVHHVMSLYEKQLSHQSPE
Sequence of Dual specificity protein kinase CLK4 (Q9HAZ1 whole entry, the tested form may be a part): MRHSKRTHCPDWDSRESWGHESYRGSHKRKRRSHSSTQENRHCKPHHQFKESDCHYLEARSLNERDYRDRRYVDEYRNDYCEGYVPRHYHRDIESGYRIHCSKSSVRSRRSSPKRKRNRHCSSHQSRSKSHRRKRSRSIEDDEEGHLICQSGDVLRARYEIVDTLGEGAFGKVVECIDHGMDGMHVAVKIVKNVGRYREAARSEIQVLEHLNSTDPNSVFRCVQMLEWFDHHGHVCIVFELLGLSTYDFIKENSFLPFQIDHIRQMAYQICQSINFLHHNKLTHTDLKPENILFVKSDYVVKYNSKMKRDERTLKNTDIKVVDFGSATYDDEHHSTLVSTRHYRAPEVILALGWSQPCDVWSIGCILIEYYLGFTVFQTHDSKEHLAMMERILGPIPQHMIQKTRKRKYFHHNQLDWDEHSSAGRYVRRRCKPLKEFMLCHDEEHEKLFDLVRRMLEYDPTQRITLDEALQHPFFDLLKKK
Sequence of BDNF/NT-3 growth factors receptor (Q16620 whole entry): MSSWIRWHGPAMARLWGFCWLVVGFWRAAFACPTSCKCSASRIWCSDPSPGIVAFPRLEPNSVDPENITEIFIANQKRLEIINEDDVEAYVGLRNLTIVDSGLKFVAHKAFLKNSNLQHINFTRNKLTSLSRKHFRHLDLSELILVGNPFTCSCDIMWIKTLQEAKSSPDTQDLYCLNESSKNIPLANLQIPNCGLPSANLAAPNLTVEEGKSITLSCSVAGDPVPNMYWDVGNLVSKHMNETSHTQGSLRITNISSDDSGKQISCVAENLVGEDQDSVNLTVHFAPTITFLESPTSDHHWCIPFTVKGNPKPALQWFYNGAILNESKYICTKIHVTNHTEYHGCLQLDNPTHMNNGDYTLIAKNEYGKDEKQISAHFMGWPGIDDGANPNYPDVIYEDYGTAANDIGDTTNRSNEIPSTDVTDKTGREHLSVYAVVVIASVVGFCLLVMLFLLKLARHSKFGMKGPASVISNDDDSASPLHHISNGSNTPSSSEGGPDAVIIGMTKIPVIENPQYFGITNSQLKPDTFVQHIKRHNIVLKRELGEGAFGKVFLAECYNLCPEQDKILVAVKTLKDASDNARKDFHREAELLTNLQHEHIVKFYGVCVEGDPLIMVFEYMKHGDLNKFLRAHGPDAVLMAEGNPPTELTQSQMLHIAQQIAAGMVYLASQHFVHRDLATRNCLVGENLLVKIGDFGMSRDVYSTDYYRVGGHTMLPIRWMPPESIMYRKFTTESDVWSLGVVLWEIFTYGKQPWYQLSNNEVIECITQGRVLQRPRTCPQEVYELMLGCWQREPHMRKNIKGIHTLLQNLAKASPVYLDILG
Sequence of Dual specificity protein phosphatase 3 (P51452 whole entry): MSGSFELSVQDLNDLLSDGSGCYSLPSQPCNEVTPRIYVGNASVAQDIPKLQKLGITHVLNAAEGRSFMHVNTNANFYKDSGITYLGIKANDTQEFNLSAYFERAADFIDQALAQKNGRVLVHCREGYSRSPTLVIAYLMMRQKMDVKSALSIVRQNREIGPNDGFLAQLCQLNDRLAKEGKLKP

EC50 [1]: 10.3 µM (inactive)
IC50 [2]: 301 µM (active)
SMILES: Nc1nc(=S)ss1

SMILES: FC(F)(F)c1cnc(-c2cnc(-c3ccccn3)nc2)c(Cl)c1
AC50 [3]: 75.3 µM (active)

Ki [4]: > 6.31 µM (inactive)
Ki [5]: > 6.31 µM (inactive)
Ki [6]: > 6.31 µM (inactive)
Ki [7]: > 6.31 µM (inactive)
Ki [8]: > 6.31 µM (inactive)
Ki [9]: > 6.31 µM (inactive)
Ki [10]: 0.631 µM (active)
Ki [11]: 1.26 µM (active)
SMILES: O=C(Nc1ccccc1N1CCCC1)c1ccc2ccccc2n1

SMILES: O=C1c2ccccc2C(=O)c2[nH]cnc21
EC50 [12]: > 300 µM (not active)
EC50 [13]: 85.6 µM (active)
AC50 [14]: 7.57 µM (active)
EC50 [1]: > 104 µM (inactive)

IC50 [15]: 4.3 µM (active)
IC50 [16]: 28.4 µM (inactive)
IC50 [17]: 1.56 µM (active)
SMILES: CCOC(=O)c1c(NC(=O)OC)sc(C(=O)N(CC)CC)c1C

IC50 [18]: 4.2 µM (active)
SMILES: Cc1ccc2c(C)c(C(=O)N3CCN(c4ncccn4)CC3)oc2c1C

IC50 [18]: 4.81 µM (active)
SMILES: COc1ccc(Nc2ccccc2NC(=O)c2ccccc2Br)cc1
